The subject of data set [1] is Proteus mirabilis strain BB2000. The data set can be described thus: Proteus mirabilis biofilm formation in polystyrene wells, crystal violet staining. The settings on record: 1 mM, M9 + glucose, 48 hours at 30° C., OD 595 nm. The data set is classed as cell-based. Here is the method:
To examine the effects of polyamines on biofilm formation, wells were initially treated with water (no treatment), 1 mM norspermidine, and 1 mM norspermine in 3 ml M9 + glucose before inoculation with P. mirabilis. Biofilms were permitted to grow for 48 hours at 30° C. without shaking The amount of biofilm formed was assessed with the standard assay of crystal violet staining (O'Toole G et al., Biofilm formation as microbial development, Annu Rev. Microbiol. (2000) 54:49-79); supernatant was removed from the wells and crystal violet (at […]) was then incubated in each well for 15 minutes at room temperature, followed by removal of the crystal violet from the wells and a subsequent washes with water. Any crystal violet attached the wells was next solubilized with 95% ethanol for 15 minutes at room temperature, and the subsequent optical density at 595 nm in each well was measured with a multiplate reader.

The test system of data set [2] is E. coli strain MC4100. The data set can be described thus: Submerged biofilm formation by E. coli, crystal violet staining. The format is cell-based, Escherichia coli. The following applies: compounds tested at 500 μM. Here is the method: (§1) The compounds were tested at 500 μM. Biofilm formation was visualized by crystal violet staining of submerged biofilms.
(§2) Whether polyamines might prevent biofilm formation by other bacteria that produce an exopolysaccharide matrix was examined. […] The compounds were tested at 500 μM. Biofilm formation was visualized by crystal violet staining of submerged biofilms.
(§3) In testing E. coli, the biofilm-proficient strain MC4100 was selected because a major component of exopolysacchride is colanic acid (Danese et al., 2000; Price and Raivio, 2009).

Data set [3] deals with P. aeriginosa strain PA14. The data set is described as follows: Biofilm formation by Pseudomonas on solid M63 medium. The data set is classed as cell-based, Pseudomonas aeruginosa. The following applies: 1 μl of cells mixed with 1 μl (10 mM) polyamine. Here is the method:
The effect of polyamines on biofilm formation by Pseudomonas was examined. P. aeriginosa strain PA14 were grown to a mid-logarithmic phase and 1 μl of cells was mixed with 1 μl (10 mM) of each polyamine. The mixture was plated on solid M63 medium.

Data set [4] deals with exopolysaccharide of E. coli cells. The data set is described as follows: Fluorescence microscopy of exopolysaccharide staining, E. coli. The format is cell-based, Escherichia coli.
Description: as §3

For data set [5], the system named is S. aureus strain SCO1. The data set is described as follows: Submerged biofilm formation by S. aureus, crystal violet staining. The format is cell-based, Staphylococcus aureus. The following applies: for inhibition of S. aureus biofilm formation: TSB with NaCl (3%) and Glucose (0.5%), norspermidine 10 μM, norspermine 100 μM; for inhibition of S. aureus submerged biofilm formation, compound screen: compounds tested at 500 μM. As for the experimental part: as §1, §2
The medium was applied with norspermidine (10 μM), norspermine (100 μM) or spermine (500 μM). Planktonic cells were removerd (19A-D). Wells were washed once, and incubated with Crystal Violet (0.1%) for 15 mins. Wells were washed twice in DDW (19E-H).
The effect of certain polyamines combined with biofilm-inhibiting D-amino acids in Staphylococcus was examined. S. aureus strain SC-01 was grown to a mid-logarithmic phase and diluted 1:1000 into a 12 wells plate in a TSB medium applied with NaCl (3%) and Glucose (0.5%). The medium was applied with either norspermidine or D-tyrosine or both as indicated below each panel. Planktonic cells were removerd Wells were washed once, and incubated with Crystal Violet (0.1%) for 15 mins. Wells were washed twice in DDW.

The subject of data set [6] is B. subtilis NCBI 3610 / strain FC5 (PepsA-lacZ). The data set can be described thus: Growth and matrix operon expression in shaking MSgg medium. The data set is classed as cell-based, Bacillus subtilis. The following applies: 100 μM, MSgg medium with shaking. As for the experimental part: Strain FC5 (carrying PepsA-lacZ) was grown in MSgg medium containing norspermidine (100 μM) with shaking or in untreated medium as control (NT).
NCBI 3610 was grown in MSgg medium applied with norspermidine (100 μM) with shaking or in untreated medium served as a control (NT). […] Therefore, whether norspermidine interacts directly with the exopolysaccharide was investigated. To attempt to detect such an interaction, dynamic light scattering was used. Dynamic scattering is a standard procedure for measuring the average radius of polymers in which a laser beam is transmitted through a sample containing polymers in solution (Berne, 1976; Orgad et al., 2011; Vinayahan et al., 2010).

Data set [7] relates to B. subtilis wild-type cells. The data set can be described thus: Biofilm formation on solid biofilm medium, B. subtilis. The format is cell-based, Bacillus subtilis. The settings on record: 1 μl of cells mixed with 1 μl (1 mM) polyamine. Here is the method: B. subtilis wild-type cells were grown to a mid-logarithmic phase and 1 μl of cells was mixed with 1 μl (1 mM) of each polyamine. The mixture was plated on solid biofilm medium.
B. subtilis wild-type cells were grown to a mid-logarithmic phase and 1 μl of cells was either mixed with PBS (18C) or mixed with 1 μl (1 mM) of each polyamine (18D). The mixture was plated on solid biofilm medium. “3*” refers to 1,5,9-Triazacyclododecane.

The test system of data set [8] is B. subtilis strain NCBI3610. The data set can be described thus: Biofilm (pellicle) inhibition assay, B. subtilis in liquid biofilm-inducing medium. The data set is classed as cell-based, Bacillus subtilis. The following applies: for minimal effective concentration: Bacillus subtilis; for inhibition of pellicle formation at 50 μM: cells diluted 1:1000 in biofilm media, final concentration 50 μM. Here is the method: Bacillus subtilis strains PY79, 3610 and their derivatives were grown in Luria-Bertani (LB) medium at 37° C. or MSgg medium (1) at 23° C. Solid media contained 1.5% Bacto agar. When appropriate, antibiotics were added at the following concentrations for growth of B. subtilis: 10 μg per ml of tetracycline, and 5 μg per ml of erythromycin, 500 μg per ml of spectinomycin.
B. subtilis strain NCBI3610 was grown at 22° C. in 12-well plates in liquid biofilm-inducing medium for 3 or 8 days. Conditioned medium (500 ml) from an 8-day-old culture was concentrated on the C-18 column and eluted step-wise with methanol. […]
Pellicle formation of strain NCBI 3610 was tested in the presence of the indicated concentrations of norspermidine (FIG. 1D) or spermidine (FIG. 1E).
To identify features of norspermidine important for its biofilm disassembly activity, we tested a library of polyamines in our biofilm inhibition assay (FIGS. 9A, 9B, 10 and Table 2).
The effect of polyamines on pellicle formation by B. subtilis was examined. B. subtilis wild-type cells were grown to a mid-logarithmic phase and diluted 1:1000 in biofilm media applied with each polyamine to the final concentration of 50 μM.
The effect of cyclic polyamines on biofilm formation by B. subtilis was examined. B. subtilis wild-type cells were grown to a mid-logarithmic phase and diluted 1:1000 in biofilm media (18A) or in a medium applied with cyclic compound 1,5,9-Triazacyclododecane to the final concentration of 50 μM (18B).

The subject of data set [9] is B. subtilis exopolysaccharide mutant (ΔepsH; DS76) and TasA mutant (ΔtasA; FC55). The data set is described as follows: Pellicle formation by matrix mutants in presence of norspermidine. The format is cell-based, Bacillus subtilis. The following applies: 25 μM norspermidine, 3-day-old cultures. The source says: It was observed that the residual pellicle (wispy fragments of floating material with some structure) produced in the presence of norspermidine resembled pellicles seen for a mutant blocked in exopolysaccharide production but not those seen (thin, featureless pellicles) for a mutant blocked in amyloid-fiber production. […] In other words, the effect of norspermidine was synergistic with that of a mutation blocking fiber formation but not with a mutant blocked in exopolysaccharide production (FIG. 4B).

The subject of data set [10] is exopolysaccharide of S. aureus cells. The data set can be described thus: Fluorescence microscopy of exopolysaccharide staining, S. aureus. The data set is classed as cell-based, Staphylococcus aureus.
Data set [11] relates to exopolysaccharide and TasA of B. subtilis NCBI 3610. The data set can be described thus: Fluorescence microscopy of matrix components (concanavalin A-Texas Red, TasA-mCherry), B. subtilis. The format is cell-based, Bacillus subtilis. The source says: The cells were washed in PBS and stained for exopolysaccharide with a conjugate of concanavalin A with Texas-Red.
[…] Cells were washed in PBS, and visualized by fluorescence microscopy.
To investigate further, exopolysaccharide was visualized by fluorescence microscopy using a conjugate of the carbohydrate-binding protein concanavalin A with Texas Red (FIG. 5) (McSwain et al., 2005). As evidence of specificity, the conjugate decorated wild-type cells but not cells from a mutant (Aeps) blocked in exopolysaccharide production (FIG. 6A). Indeed, at an exposure at which concanavalin A staining with the wild type strain gave an extremely bright fluorescent signal, little or no signal could be detected for the Aeps mutant, except at long exposures and enhanced brightness (FIG. 6A). Next, we investigated the effects of norspermidine and spermidine. […] Therefore, the difference in the staining was evidently due to differential levels of cell-associated exopolysaccharide. […] Thus, while not being bound to any theory, it is believed that norspermidine disrupts the matrix and by targeting exopolysaccharide.

Data set [12] concerns B. subtilis pellicles. The data set can be described thus: Disassembly of pre-formed pellicles, B. subtilis. The data set is classed as cell-based, Bacillus subtilis. The following applies: 250 μM applied at day 2, additional 24 hrs. Here is the method:
After incubation for the indicated times, pellicle material and the medium were separated and each brought to a volume of 3 ml. After mild sonication, the OD600 was determined for each sample. The % of disassembly represents the OD600 of the medium as a percent of the sum of the OD600 of the medium and the OD600 of the pellicle. […] Thus, D-amino acids and norspermidine act synergistically in preventing biofilm formation and triggering the disassembly of mature biofilms.
Whether polyamines could trigger disassembly of biofilms formed by B. subtilis was examined. B. subtilis wild-type cells grown in liquid biofilm medium. Cells were grown to mid-logarithmic phase and diluted 1:1000 in liquid biofilm media. At day 2, pre-formed pellicles were applied with either PBS (A) or norspermine (250 μM) (B). Pellicles were incubated for additional 24 hrs.

SMILES strings stand for the structures. Where two headings read alike, the source gives them in different places.

Regarding `NCCCNCCCN` [Molecule 1, N-(3-aminopropyl)propane-1,3-diamine], the “reduction of Proteus mirabilis biofilm formation” value in data set [1] is reported as “sufficient to reduce biofilm formation”. Further, the “inhibition of E. coli submerged biofilm formation” value in data set [2] is on record as “inhibited the formation of submerged biofilms”. Further, the “inhibition of Pseudomonas biofilm formation” value in data set [3] is “inhibit biofilm formation”. Besides, the “staining of exopolysaccharide, E. coli cells” value in data set [4] was “markedly diminished staining of exopolysaccharide”. In [5], the “inhibition of S. aureus biofilm formation” value is listed as “inhibit biofilm formation” and the “inhibition of S. aureus submerged biofilm formation, compound screen” value is on record as “inhibited the formation of submerged biofilms”. Also, the cell growth entry in [6] is on record as “not significantly inhibited”. In addition, the “inhibition of biofilm formation on solid biofilm medium” value in data set [7] was “inhibit biofilm formation”. Further, the minimal effective concentration in data set [8] (NCBI3610, read-out: MBIC- Minimal Biofilm Inhibitory Concentration) was 25 to 50 µM. The “concentration at which biofilm formation was inhibited” value in data set [8] (authentic norspermidine, pellicle formation NCBI3610) came to 25 µM. In addition, the “inhibition of pellicle formation at 50 μM” value in data set [8] is “inhibit biofilm formation”. In data set [9], the “effect on pellicle formation by amyloid fiber (TasA) mutant” value was “abolished pellicle formation” and the “effect on residual pellicle of exopolysaccharide mutant” value is listed as “little effect on the residual pellicle”. Also, the “staining of exopolysaccharide, S. aureus cells” value in data set [10] is “markedly diminished staining of exopolysaccharide”. Also, in [11] (norspermidine 25 μM, spermidine 1 mM), the “pattern of concanavalin A-Texas Red staining of exopolysaccharide” value is reported as “disrupted the relatively uniform, cell-associated pattern of staining”. Moreover, the “effect on protein component of the matrix (TasA-mCherry)” value in [11] (norspermidine 50 μM) is recorded as “little or no effect on the protein component of the matrix”.
As for `NCCCNCCCNCCCN` [Molecule 2, N′-[3-(3-aminopropylamino)propyl]propane-1,3-diamine], the “reduction of Proteus mirabilis biofilm formation” value in data set [1] is “sufficient to reduce biofilm formation”. For the same compound, the “inhibition of E. coli submerged biofilm formation” value in data set [2] is “inhibited the formation of submerged biofilms”. In addition, in [3], the “inhibition of Pseudomonas biofilm formation” value is listed as “inhibit biofilm formation”. In addition, in data set [5], the “inhibition of S. aureus biofilm formation” value is listed as “inhibit biofilm formation” and the “inhibition of S. aureus submerged biofilm formation, compound screen” value is on record as “inhibited the formation of submerged biofilms”. In data set [7], the “inhibition of biofilm formation on solid biofilm medium” value was “inhibit biofilm formation”. Moreover, the minimal effective concentration in data set [8] (NCBI3610, B. subtilis biofilm inhibition assay, library of polyamines, read-out: MBIC- Minimal Biofilm Inhibitory Concentration) stood at 200 µM. In data set [8], the “inhibition of pellicle formation at 50 μM” value is recorded as “inhibit biofilm formation”. Further, the “biofilm-inhibitory activity against B. subtilis” value in data set [8] (library of polyamines, structure-activity) is on record as “exhibited biofilm-inhibitory activity”. Also, the “disassembly of pre-formed pellicles” value in [12] is given as “triggered disassembly of the pellicles”.

The values are drawn from US20140056951A1, “METHODS AND COMPOSITIONS FOR TREATING BIOFILMS” (PRESIDENT AND FELLOWS OF HARVARD COLLEGE, priority 2011, published 2014).
